Consider 18 compounds from US12005127B2, “DNA-PK inhibitors” (VERTEX PHARMACEUTICALS INCORPORATED, priority 2018, dated 2024).

Assay [1] concerns the target T1, DNA-PK (Homo sapiens, UniProt P78527). As to the kind of experiment: DNA-PK inhibition assay (radiometric 33P-ATP kinase assay). The class given is biochemical. To be noted: competitive tight-binding fit. The procedure:
Compounds were screened for their ability to inhibit DNA-PK kinase using a standard radiometric assay. Briefly, in this kinase assay the transfer of the terminal ^33P-phosphate in ^33P-ATP to a peptide substrate is interrogated. The assay was carried out in 384-well plates to a final volume of 50 μL per well containing approximately 6 nM DNA-PK, 50 mM HEPES (pH 7.5), 10 mM MgCl2, 25 mM NaCl, 0.01% BSA, 1 mM DTT, 10 μg/mL sheared double-stranded DNA (obtained from Sigma), 0.8 mg/mL DNA-PK peptide (Glu-Pro-Pro-Leu-Ser-Gln-Glu-Ala-Phe-Ala-Asp-Leu-Trp-Lys-Lys-Lys, obtained from American Peptide), and 100 μM ATP. Accordingly, compounds of the invention were dissolved in DMSO to make 10 mM initial stock solutions. Serial dilutions in DMSO were then made to obtain the final solutions for the assay. A 0.75 μL aliquot of DMSO or inhibitor in DMSO was added to each well, followed by the addition of ATP substrate solution containing ^33P-ATP (obtained from Perkin Elmer). The reaction was started by the addition of DNA-PK, peptide and ds-DNA. After 45 min, the reaction was quenched with 25 μL of 5% phosphoric acid. The reaction mixture was transferred to MultiScreen HTS 384-well PH plates (obtained from Millipore), allowed to bind for one hour, and washed three times with 1% phosphoric acid. Following the addition of 50 μL of Ultima Gold™ high efficiency scintillant (obtained from Perkin Elmer), the samples were counted in a Packard TopCount NXT Microplate Scintillation and Luminescence Counter (Packard BioScience). The Ki values were calculated using Microsoft Excel Solver macros to fit the data to the kinetic model for competitive tight-binding inhibition. In Tables 1 and 2 below, Ki of less than 0.001 micromolar for the inhibition of DNA-PK is indicated as “A”; Ki of equal to or greater than 0.001 micromolar and less than 0.01 micromolar for the inhibition of DNA-PK as “B”; Ki of equal to or greater than 0.01 micromolar and less than 0.1 micromolar for the inhibition of DNA-PK as “C”; Ki of equal to or greater than 0.1 micromolar and less than 1 micromolar for the inhibition of DNA-PK for “D”; and Ki of equal to or greater than 1 micromolar as “E.”

Assay [2] addresses T1, DNA-PK. As to the kind of experiment: DNA-PK cellular assay (pDNA-PK Ser2056 sandwich ELISA, NCS-induced DSBs). More on the design: endogenous in cells; host or cells: A549 (human NSCLC). Conditions: pDNA-PK (Ser2056) in A549 cells, NCS 50 ng/ml, 15 minutes. The class given is cell-based. The source says:
DNA-PK is recruited to and activated by double-strand breaks (DSB) in DNA and plays a critical role in the non-homologous end-joining (NHEJ) repair mechanism. Upon activation, DNA-PK undergoes rapid autophosphorylation at Ser2056. The measure of pDNA-PK (Ser2056) in response to DNA DSBs provides a cellular signaling assay to evaluate potential DNA-PK kinase inhibitors.
Neocarzinostatin (NCS) was used as a radiomimetic to induce DNA DSBs. The sandwich ELISA used the Meso Scale Discovery electrochemiluminescence technology platform which typically provides greater sensitivity than traditional ELISA formats.
A549 (human NSCLC) cells are plated at 25,000 cells/well in 100 uL of DMEM (Invitrogen cat #11995-040) supplemented with 1% Pen/Strep (Invitrogen cat #15070-063) and 10% FBS (Hyclone cat #SH30071.03HI) on black clear bottom 96 well plates (Costar #3904) and allowed to adhere overnight at 37° C. in 5% CO2. The following day, the compounds and NCS solutions are prepared by adding 100 ul of DMEM growth media per well in a Corning polypropylene V-bottom deep well plate (cat #3357). The HP Compound Dilution D300 instrument was used to add compounds to the appropriate wells using the setting logarithmic and 16-point titration singlet.
The DMEM NCS solution was prepared by adding NCS to DMEM media at 200 ng/ml (final assay concentration, 50 ng/ml). 100 ul of the DMEM/NCS solution is added to the wells with the compounds. 100 ul of this solution is then immediately added to the A549 cells. The cells are then incubated for 15 minutes at 37° C.
The complete lysis buffer is prepared by adding 1% Phosphatase inhibitor (Sigma cat #P2850) and 1% Protease Inhibitor (Sigma cat #P8340) to the Lanthascreen cellular assay lysis buffer (Invitrogen cat #PV5598). The media from the plate was removed by flicking and patting dry. 60 uL/well of the complete lysis buffer is added to each well. These plates are then incubated for at least 5 minutes in the lysis buffer at room temperature to ensure complete lysis. At this point the lysates can be transferred to prepared ELISA plates.
The prepared ELISA plates were prepared blocking the Mesoscale Goat-Anti-Mouse (GAM) plates with 150 uL/well of 3% Blocker A (Mesoscale cat #R93-BA) for one hour at room temperature with shaking. The capture antibody is prepared by diluting the mouse monoclonal anti-total DNA-PK (AbCAM cat #ab1832) to 3 ug/mL in 1% Blocker A. The blocked plates rinsed once with 200 uL D-PBS. The capture antibody (25 ul/well) was added to each well and allowed to incubate for an hour at room temperature while shaking. This was rinsed once with 200 ul D-PBS before adding 25 uL of the prepared cell lysate from the cell plates to the Mesoscale GAM ELISA plate. The lysate is then incubated on the plates for one hour at room temperature with shaking. The detection antibody (Epitomics rabbit anti-pS2056-DNA-PK) is prepared at a 1/1000 dilution (to a final concentration of 450 ng/mL) in 1% Blocker A. The GAM plates are washed once with 200 uL of D-PBS and then 25 uL/well of the detection antibody is added to the plate. This incubates for one hour at room temperature with shaking. The Sulfotag is prepared by adding Sulfo-Tag Goat-Anti-Rabbit antibody (Mesoscale cat #R32AB-1) at a 1/500 dilution (1 ug/mL) to 1% Blocker A. The GAM plates are washed with 200 uL of D-PBS and then 25 uL of the Sulfotag preparation is added to each well. Once the plates have been incubated with the final solution, the Sulfotag, for 1 hour, they are washed once with 200 uL of D-PBS. The 1× Read Buffer (Mesoscale cat #R32-TC) is made by diluting the 4× buffer in ddH20. 150 uL of 1× buffer is added to each well of the GAM plate and then the plate is read on the Sector Imager 2400. The readout (electrochemiluminescence) was plotted against the concentration of each compound and the IC50s were generated using Prism software (GraphPad Prism version 6.0e for Macintosh). […]
Background: ELISA stands for enzyme-linked immunosorbent assay.

Where only a bound is given, the exact number is not on record here.

Regarding `Cc1nc2c(c(N[C@H]3CC[C@@H](Oc4cc(N5CCOCC5)cc5ncncc45)CC3)n1)OCC2` [Compound 1, 2-methyl-N-[4-(7-morpholinoquinazolin-5-yl)oxycyclohexyl]-6,7-dihydrofuro[3,2-d]pyrimidin-4-amine], the Ki on DNA-PK [1] (Table 1, 100 μM ATP) is below 0.001 µM. On DNA-PK [2] (Table 1), this compound displayed an IC50 below 100 nM.

`Cc1nc2c(c(N[C@H]3CC[C@@H](Oc4cc(N5CCOCC5)cc5ncnc(C#N)c45)CC3)n1)OCC2` [Compound 2, 5-[4-[(2-methyl-6,7-dihydrofuro[3,2-d]pyrimidin-4-yl)amino]cyclohexoxy]-7-morpholino-quinazoline-4-carbonitrile] gave an inhibition constant Ki at DNA-PK [1] (Table 1, 100 μM ATP) below 0.001 µM. On DNA-PK [2] (Table 1), the IC50 was below 100 nM.

The compound `Cc1nccc(N[C@H]2CC[C@@H](Oc3cc(N4CCOCC4)cc4ncncc34)CC2)n1` [Compound 3, 2-methyl-N-[4-(7-morpholinoquinazolin-5-yl)oxycyclohexyl]pyrimidin-4-amine] came in with a Ki on DNA-PK [1] (Table 1, 100 μM ATP) below 0.001 µM. The IC50 against DNA-PK [2] (Table 1) was below 100 nM.

As to `Cc1nccc(N[C@H]2CC[C@@H](Oc3cc(N4CCOCC4)cc4ncnc(C#N)c34)CC2)n1` [Compound 4, 5-[4-[(2-methylpyrimidin-4-yl)amino]cyclohexoxy]-7-morpholino-quinazoline-4-carbonitrile], the inhibition constant (Ki) on DNA-PK [1] (Table 1, 100 μM ATP) is below 0.001 µM. Moreover, the IC50 at DNA-PK [2] (Table 1) was below 100 nM.

The compound `COc1ncnc2cc(N3CCOCC3)cc(O[C@H]3CC[C@@H](Nc4nc(C)nc5c4OCC5)CC3)c12` [Compound 5, N-[4-(4-methoxy-7-morpholino-quinazolin-5-yl)oxycyclohexyl]-2-methyl-6,7-dihydrofuro[3,2-d]pyrimidin-4-amine] came in with a Ki on DNA-PK [1] (Table 1, 100 μM ATP) below 0.001 µM. Moreover, at DNA-PK [2] (Table 1), the IC50 is below 100 nM.

For the compound `COc1ncnc2cc(N3CCOCC3)cc(O[C@H]3CC[C@@H](Nc4ccnc(C)n4)CC3)c12` [Compound 6, N-[4-(4-methoxy-7-morpholino-quinazolin-5-yl)oxycyclohexyl]-2-methyl-pyrimidin-4-amine], on DNA-PK [1] (Table 1, 100 μM ATP), the Ki was below 0.001 µM. The compound further displayed an IC50 against DNA-PK [2] (Table 1) below 100 nM.

`O=C1c2ccccc2C(=O)N1[C@H]1CC[C@@H](Oc2cc(N3CCOCC3)cc3ncncc23)CC1` [Compound 7, 2-[4-(7-morpholinoquinazolin-5-yl)oxycyclohexyl]isoindoline-1,3-dione] returned an inhibition constant (Ki) at DNA-PK [1] (Table 1, 100 μM ATP) of 0.001 to 0.01 µM. This compound displayed an IC50 at DNA-PK [2] (Table 1) of 100 to 1000 nM.

As to `CNC(=O)c1ccnc(N[C@H]2CC[C@@H](Oc3cc(N4CCOCC4)cc4ncncc34)CC2)n1` [Compound 8, N-methyl-2-[[4-(7-morpholinoquinazolin-5-yl)oxycyclohexyl]amino]pyrimidine-4-carboxamide], on DNA-PK [1] (Table 1, 100 μM ATP), the Ki is below 0.001 µM. This compound also came in with an IC50 against DNA-PK [2] (Table 1) below 100 nM.

At DNA-PK [1] (Table 1, 100 μM ATP), `CNC(=O)c1ccnc(N[C@H]2CC[C@@H](Oc3cc(N4CCOCC4)cc4ncnc(OC)c34)CC2)n1` [Compound 9, 2-[[4-(4-methoxy-7-morpholino-quinazolin-5-yl)oxycyclohexyl]amino]-N-methyl-pyrimidine-4-carboxamide] gave a Ki below 0.001 µM. Further, the IC50 on DNA-PK [2] (Table 1) was below 100 nM.

With `Cc1ncc2c(O[C@H]3CC[C@@H](NC(=O)OC(C)(C)C)CC3)cc(N3CCOCC3)cc2n1` [Compound 10, tert-butyl N-[4-(2-methyl-7-morpholino-quinazolin-5-yl)oxycyclohexyl]carbamate], the Ki at DNA-PK [1] (Table 1, 100 μM ATP) is 0.001 to 0.01 µM. On DNA-PK [2] (Table 1), this compound yielded an IC50 of at least 1000 nM.

On DNA-PK [1] (Table 1, 100 μM ATP), `CNC(=O)c1ccnc(N[C@H]2CC[C@@H](Oc3cc(N4CCOCC4)cc4nc[nH]c(=O)c34)CC2)n1` [Compound 11, N-methyl-2-[[4-[(7-morpholino-4-oxo-3H-quinazolin-5-yl)oxy]cyclohexyl]amino]pyrimidine-4-carboxamide] yielded a Ki below 0.001 µM. Also, the IC50 on DNA-PK [2] (Table 1) is at least 1000 nM.

`Cc1nccc(N[C@H]2CC[C@@H](Oc3cc(N4CCOCC4)cc4ncn(C)c(=O)c34)CC2)n1` [Compound 21, 3-methyl-5-[4-[(2-methylpyrimidin-4-yl)amino]cyclohexoxy]-7-morpholino-quinazolin-4-one] displayed an IC50 against DNA-PK [2] (Table 1) of 100 to 1000 nM.

Take `CNC(=O)c1ccnc(N[C@H]2CC[C@@H](Oc3cc(N4CCOCC4)cc4ncn(C)c(=O)c34)CC2)n1` [Compound 25, N-methyl-2-[[4-(3-methyl-7-morpholino-4-oxo-quinazolin-5-yl)oxycyclohexyl]amino]pyrimidine-4-carboxamide]: at DNA-PK [2] (Table 1), the IC50 was in the range of 100 to 1000 nM.

Turning to `Cn1cnc(C(=O)N[C@H]2CC[C@@H](Oc3cc(N4CCOCC4)cc4ncncc34)CC2)c1` [Compound 26, 1-methyl-N-((1s,4s)-4-((7-morpholinoquinazolin-5-yl)oxy)cyclohexyl)-1H-imidazole-4-carboxamide], the IC50 on DNA-PK [2] (Table 1) lay in the range of 100 to 1000 nM.

With `c1cnc(O[C@H]2CC[C@@H](Oc3cc(N4CCOCC4)cc4ncncc34)CC2)nc1` [Compound 27, 4-[5-cis-(4-pyrimidin-2-yloxycyclohexoxy)quinazolin-7-yl]morpholine], the IC50 at DNA-PK [2] (Table 1) was below 100 nM.

Consider `c1cnc(O[C@H]2CC[C@H](Oc3cc(N4CCOCC4)cc4ncncc34)CC2)nc1` [Compound 28, 4-[5-trans-(4-pyrimidin-2-yloxycyclohexoxy)quinazolin-7-yl]morpholine], for which the IC50 against DNA-PK [2] (Table 1) was below 100 nM.

At DNA-PK [1] (Table 2, 100 μM ATP), `COc1ccc(COc2cc(N3CCOCC3)cc3ncnc(Cl)c23)cc1` [Compound 54, 4-[4-chloro-5-[(4-methoxyphenyl)methoxy]quinazolin-7-yl]morpholine] displayed a Ki of 0.01 to 0.1 µM.

On to `COc1ccc(COc2cc(N3CCOCC3)cc3ncnc(C4CC4)c23)cc1` [Compound 56, 4-[4-cyclopropyl-5-[(4-methoxyphenyl)methoxy]quinazolin-7-yl]morpholine], for which the IC50 at DNA-PK [2] (Table 2) lay in the range of 100 to 1000 nM.

In general, Ki refers to a measure of affinity in units of concentration, obtained from inhibition or displacement. A lower Ki goes with a stronger hold on the target. By IC50 is commonly meant the concentration that gives 50% inhibition.
